In ChEMBL document CHEMBL1144900, “Synthesis and SAR of thrombin inhibitors incorporating a novel 4-amino-morpholinone sscaffold: analysis of X-ray crystal structure of enzyme inhibitor complex” (J Med Chem, 2003) one finds IC50 data, which are given here for 25 compounds.

For this assay, the target named is Prothrombin (Homo sapiens, UniProt P00734). In words: Inhibitory activity against human thrombin.

Consider `N=C(N)c1ccc(CNC(=O)C[C@H]2OCCN(N(CCCc3ccccc3)CCCc3ccccc3)C2=O)cc1`, for which the IC50 (commonly the concentration needed to halve the response being measured) was found to be 36.2 µM. This lies in the double-digit micromolar range.

Regarding `N=C(N)c1ccc(CNC(=O)C[C@@H]2OCCN(NS(=O)(=O)Cc3ccccc3)C2=O)cc1`, the IC50 came out at 9.15 µM.

Take `N=C(N)c1ccc(CNC(=O)CC2OCCN(NS(=O)(=O)c3ccc4c(c3)CCO4)C2=O)cc1` (stereo not given): it took 0.486 µM to reach half-maximal inhibition (IC50).

For the compound `N=C(N)c1ccc(CNC(=O)CC2OCCN(Nc3ccccc3)C2=O)cc1` (stereo not given), the IC50 was determined as 34.4 µM.

In the case of `N=C(N)c1ccc(CNC(=O)CC2OCCN(Nc3cccc(N)c3)C2=O)cc1` (stereo not given), the IC50 was > 32 µM.

`COc1ccc(OC)c(S(=O)(=O)NN2CCOC(CC(=O)NCc3ccc(C(=N)N)cc3)C2=O)c1` (stereo not given) showed an IC50 of 0.13 µM.

Turning to `N=C(N)c1ccc(CNC(=O)C[C@H]2OCCN(NCC(=O)c3ccccc3)C2=O)cc1`, the IC50 is > 133 µM.

For the compound `N=C(N)c1ccc(CNC(=O)C[C@@H]2OCCN(NCCCc3ccccc3)C2=O)cc1`, the IC50 worked out at 4.74 µM.

Turning to `N=C(N)c1ccc(CNC(=O)C[C@H]2OCCN(NCc3ccccc3)C2=O)cc1`, it took 13.6 µM to reach half-maximal inhibition (IC50).

Compound `Cc1ccc(C)c(S(=O)(=O)NN2CCOC(CC(=O)NCc3ccc(C(=N)N)cc3)C2=O)c1` (stereo not given) gave an IC50 of 0.247 µM.

The compound `CC(C)OC(=O)NN1CCO[C@H](CC(=O)NCc2ccc(C(=N)N)cc2)C1=O` registered an IC50 of 80.6 µM.

On to `N=C(N)c1ccc(CNC(=O)CC2OCCN(Nc3ccc(-c4ccccc4)cc3)C2=O)cc1` (stereo not given), for which the IC50 worked out at 4.88 µM.

Consider `Cc1ccc(CCNN2CCOC(CC(=O)NCc3ccc(C(=N)N)cc3)C2=O)cc1` (stereo not given), for which inhibition was half-maximal at 0.961 µM (IC50).

As for `N=C(N)c1ccc(CNC(=O)C[C@@H]2OCCN(NCc3ccccc3)C2=O)cc1`, the IC50 is 10.6 µM. Against the preceding compound, the IC50 is about 11-fold higher.

`N=C(N)c1ccc(CNC(=O)C[C@H]2OCCN(NS(=O)(=O)Cc3ccccc3)C2=O)cc1` returned an IC50 of 36.8 µM. Against the preceding compound, the IC50 is about 3.5-fold higher.

The compound `N=C(N)c1ccc(CNC(=O)C[C@H]2OCCN(NC(=O)c3ccccc3)C2=O)cc1` yielded an IC50 of 106 µM. Against the preceding compound, the IC50 is about 2.9-fold higher.

For `N=C(N)c1ccc(CNC(=O)CC2OCCN(NS(=O)(=O)c3ccc(F)cc3F)C2=O)cc1` (stereo not given), inhibition was half-maximal at 8.14 µM (IC50).

As to `CC(C)(C)OC(=O)NN1CCO[C@H](CC(=O)NCc2ccc(C(=N)N)cc2)C1=O`, the IC50 is 54.7 µM.

In turn, `N=C(N)c1ccc(CNC(=O)C[C@H]2OCCN(NS(=O)(=O)c3ccccc3)C2=O)cc1` showed an IC50 of 37.7 µM. This IC50 and that of the compound before are within 1.5-fold of each other.

For the compound `N=C(N)c1ccc(CNC(=O)C[C@H]2OCCN(NCCCc3ccccc3)C2=O)cc1`, the IC50 turned out to be 45.4 µM.

`Cc1cc(S(=O)(=O)NN2CCOC(CC(=O)NCc3ccc(C(=N)N)cc3)C2=O)c(C)cc1Cl` (stereo not given) gave an IC50 of 0.164 µM.

For `N=C(N)c1ccc(CNC(=O)C[C@H]2OCCN(NCCc3ccccc3)C2=O)cc1`, inhibition was half-maximal at 35.6 µM (IC50).

Consider `N=C(N)c1ccc(CNC(=O)C[C@H]2OCCN(NC(=O)c3ccc(N)cc3)C2=O)cc1`, for which the IC50 was 150 µM.

`N=C(N)c1ccc(CNC(=O)CC2OCCN(N(Cc3ccccc3)Cc3ccccc3)C2=O)cc1` (stereo not given): the IC50 was determined as 19.8 µM. This IC50 is about 7.6-fold lower than that of the compound before.

Consider `N=C(N)c1ccc(CNC(=O)C[C@@H]2OCCN(NCCc3ccccc3)C2=O)cc1`, for which the IC50 was 1.79 µM.
